Measured values published in patent publication US9394299B2, “Rilyazine derivatives and compositions for the treatment of cancer” (Warner Babcock Institute for Green Chemistry, LLC, priority 2013, dated 2016).

What was measured:
SK-MEL-5 (Melanoma) = assay: NCI single point 10 μM, SK-MEL-5; assay type: cell-based, human; conditions: 10^−5 M
Experimental: (§1) The screening is a two-stage process, beginning with the evaluation of all compounds against 60 cell lines at a single dose of 10^−5 M.
(§2) The human tumor cell lines of the cancer screening panel are grown in RPMI 1640 medium containing 5% fetal bovine serum and 2 mM L-glutamine. Cells are inoculated into 96 well microtiter plates in 100 μL at plating densities ranging from 5,000 to 40,000 cells/well depending on the doubling time of individual cell lines. After cell inoculation, the microtiter plates are incubated at 37° C., 5% CO2, 95% air and 100% relative humidity for 24 h prior to addition of experimental drugs. […]
(§3) Following drug addition, the plates are incubated for an additional 48 h at 37° C., 5% CO2, 95% air, and 100% relative humidity. […] Bound stain is subsequently solubilized with 10 mM trizma base, and the absorbance is read on an automated plate reader at a wavelength of 515 nm. […]
(§4) For the 1-dose 60 cell testing, the Growth Percent is calculated for each cell line/drug combination from the absorbance measurement for the no-drug control (C), the absorbance at time zero (Tz) and the absorbance measurement after incubation of the cells in the presence of drug (Ti): Growth Percent=[(Ti−Tz)/(C−Tz)]×100 for cell line/drug combinations for which Ti≧Tz. […]

MDA-MB-231/ATCC (Breast) = assay: NCI single point 10 μM, MDA-MB-231/ATCC; assay type: cell-based, human; conditions: 10^−5 M
Experimental: as §1, §2, §3, §4

MALME-3M (Melanoma) = assay: NCI single point 10 μM, MALME-3M; assay type: cell-based, human; conditions: 10^−5 M
Experimental: as §1, §2, §3, §4

MCF-7 cells = assay: MTT cell proliferation assay, MCF-7; assay type: cell-based; conditions: 72 h-exposure, 30-0.041 μM
Experimental: In vitro characterizing of the effects of rilyazine analogs on cell proliferation and apoptosis in the paired epithelial/mesenchymal lines (Colo205/Colo-R, DLD/DLD-SNAIL and MCF7/MCF7-WISP) was performed in an independent laboratory.
The Dose Preparation is based on a reconstitute in DMSO. The Concentration of the stock solution is 100 mM. Storage of the stock solution is under −80° C.
Working drug solution of rilyazine analogs: A stock solution of 100 mM OTX015 in DMSO was prepared and stored at −80° C. For growth inhibition studies, dilution series were prepared by (1) diluting stock solution into DMSO, then (2) diluting 1:300 in culture medium supplemented with 10% FBS giving a final concentration in 0.3% DMSO in the 96-well plates.
Cell lines. Cells lines were maintained in RPMI 1640 (PAA Laboratories, France) supplemented with 10% fetal bovine serum (FBS; PAA Laboratories, France), 2 mM glutamine (PAA Laboratories, France), 100 units/ml penicillin and 100 μg/ml streptomycin (PAA Laboratories, France). Cells were free of Mycoplasma.
Proliferation assays. Cell proliferation was determined using the MTT assay (3-[4,5-dimethylthiazol-2-yl]-2,5-diphenyltetrazolium bromide; Sigma-Aldrich, St. Louis, Mo.). […] After incubation, the supernatant was discarded, the cell pellet was resuspended in 0.1 mL DMSO, and the absorbance was measured at 560 nm using a microplate reader (Thermo, France). […]

For `S=c1c2ncccc2c(-c2ccccn2)nn1C1CCCCC1` [RL-4, 7-cyclohexyl-5-(pyridin-2-yl)pyrido[2,3-d]pyridazine-8(7H)-thione], the “Growth Percent” value (SK-MEL-5 (Melanoma)) was 7.87%, the “Growth Percent” value (MDA-MB-231/ATCC (Breast)) was 129.23% and the “Growth Percent” value (MALME-3M (Melanoma)) was 98.97%. For the same compound, the “anti-proliferative effects (in words)” value (MCF-7 cells) was “dose-dependent anti-proliferative effects”.
